In data set [1] the test system is plasma DPP-IV. In kind it is in vitro ADME, bovine. As for the experimental part: Evidence of the improved metabolic stability of the compounds of this invention (when compared to native GRF) is illustrated in Table I by the in vitro stability data provided. It is noteworthy that in bovine plasma in vitro, the analogs having […], Val², Ile² or Leu² were not cleaved after residue 2 by plasma DPP-IV under the experimental conditions used in the study (one hour plasma incubation).

Data set [2] relates to release of GH by the pituitary. Kind of data set: relative in vivo potency of GRF analogs (Table I). To be noted: expected from the relative in vivo potency at a dose of 0.01 nmol/kg; ED50 not determined.

Where no end group is shown, it is not given here.

“YTDAIFTNSYRKVLAQLSARKLLQDILNR-NH2 [Cpd. No. 1, Thr² Ala¹⁵ Leu²⁷ bGRF(1-29)NH₂, trifluoroacetate salt]”: in data set [1], the DPP-IV related cleavage result is recorded as “slight DPP-IV related cleavage”.
“Ile² Ala¹⁵ Leu²⁷ bGRF(1-29)NH₂, trifluoroacetate salt [Cpd. No. 3]”: the “potency relative to its isomer Leu2 Ala15 Leu27 bGRF(1-29)NH2, trifluoroacetate salt, when the ED50 of each is determined and compared” value in data set [2] is 10-20 times.

The values above are taken from EP0477217B1, “STABILIZED, POTENT GRF ANALOGS” (THE UPJOHN COMPANY, priority 1989, dated 1994).
